Source: patent US9802918B2, “Pyridineamine compounds useful as Pim kinase inhibitors” (Incyte Corporation, priority 2015, dated 2017)

Legend:
Format in all cases: biochemical
Pim-3 = Pim-3 (Homo sapiens (Human), UniProt Q86V86); assay: Pim-3 kinase assay; settings: 1 mM ATP; read-out: Pim3 IC50
Experimental: Pim-1 and Pim-3 kinase assays-20 μL reactions were run in white 384 well polystyrene plates dotted with 0.8 μL compound/DMSO in the assay buffer (50 mM Tris, pH 7.5, 0.01% Tween-20, 5 mM mgCl2, 0.01% BSA, 5 mM DTT), containing […] Biotin-labeled BAD peptide substrate (AnaSpec 62269), 1 mM ATP, and 2.5 pM (Pim-1, Invitrogen PV3503) or 1.25 pM (Pim-3, Millipore 14-738) enzyme for 1 h at 25° C. Reactions were stopped by addition of 10 μL STOP Buffer (150 mM Tris, pH=7.5, 150 mM NaCl, 75 mM EDTA, 0.01% Tween-20, 0.3% BSA,) supplemented with Phospho-Bad (Ser112) Antibody (Cell Signaling 9291) diluted 666-fold, and Streptavidin donor beads (PerkinElmer 6760002) along with Protein-A acceptor beads (PerkinElmer 6760137) at 15 μg/mL each. Supplementation of the STOP buffer with beads and stopping the reactions were done under reduced light. Prior to the stopping reactions STOP buffer with beads was preincubated for 1 h in the dark at room temperature. After stopping the reactions, plates were incubated for 1 h in the dark at room temperature before reading on a PHERAstar FS plate reader (BMG Labtech) under reduced light.

Pim-2 = Pim-2 (Homo sapiens (Human), UniProt Q9P1W9); assay: Pim-2 kinase assay; settings: 1 mM ATP; read-out: Pim2 IC50
Experimental: Pim-2 kinase assay—20 μL reactions were run in white 384 well polystyrene plates dotted with 0.8 μL compound/DMSO in the assay buffer (50 mM Tris, pH 7.5, 0.01% Tween-20, 5 mM mgCl2, 0.01% BSA, 5 mM DTT), containing […] Fluorescein-labeled CREBtide peptide substrate (Invitrogen PV3508), 1 mM ATP, and 1 nM enzyme (Invitrogen PV3649) for 2 h at 25° C. Reactions were stopped by addition of 10 μL TR-FRET Dilution Buffer (Invitrogen PV3574) with 30 mM EDTA and 1.5 nM LanthaScreen Tb-CREB pSer133 antibody (Invitrogen PV3566). After 30 min. incubation at room temperature, plates were read on a PHERAstar FS plate reader (BMG Labtech).

Pim-1 = Pim-1 (Homo sapiens (Human), UniProt P11309); assay: Pim-1 kinase assay; settings: 1 mM ATP; read-out: Pim1 IC50
Experimental: Supplementation of the STOP buffer with beads and stopping the reactions were done under reduced light. Prior to the stopping reactions STOP buffer with beads was preincubated for 1 h in the dark at room temperature. After stopping the reactions, plates were incubated for 1 h in the dark at room temperature before reading on a PHERAstar FS plate reader (BMG Labtech) under reduced light.

Sequence of Pim-1 (P11309 whole entry): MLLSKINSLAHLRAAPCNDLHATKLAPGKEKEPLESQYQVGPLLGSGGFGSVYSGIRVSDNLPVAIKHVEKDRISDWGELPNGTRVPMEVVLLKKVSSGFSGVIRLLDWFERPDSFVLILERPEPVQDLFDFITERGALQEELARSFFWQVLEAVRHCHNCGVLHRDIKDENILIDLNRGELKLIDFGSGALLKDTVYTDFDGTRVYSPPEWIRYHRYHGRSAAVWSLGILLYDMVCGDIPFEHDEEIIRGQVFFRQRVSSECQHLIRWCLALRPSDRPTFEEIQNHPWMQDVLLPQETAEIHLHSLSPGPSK
Sequence of Pim-2 (Q9P1W9 whole entry): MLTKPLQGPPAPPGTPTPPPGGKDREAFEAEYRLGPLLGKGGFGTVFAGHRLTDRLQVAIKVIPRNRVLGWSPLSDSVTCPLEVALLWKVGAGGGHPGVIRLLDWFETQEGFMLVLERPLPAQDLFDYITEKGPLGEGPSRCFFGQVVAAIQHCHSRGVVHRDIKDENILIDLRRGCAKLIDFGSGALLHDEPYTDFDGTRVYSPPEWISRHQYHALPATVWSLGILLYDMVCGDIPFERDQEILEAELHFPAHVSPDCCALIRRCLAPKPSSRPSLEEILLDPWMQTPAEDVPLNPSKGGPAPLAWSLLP

Structure (SMILES)	IC50 (Pim-3) [nM]	IC50 (Pim-2) [nM]	IC50 (Pim-1) [nM]
C[C@@H]1C[C@H](N)CN(c2ccncc2NCc2ccc(F)c(-c3c(F)cccc3F)n2)C1 [Example 19, 4-[(3S,5R)-3-Amino-5-methylpiperidin-1-yl]-N-{[6-(2,6-difluorophenyl)-5-fluoropyridin-2-yl]methyl}pyridin-3-amine]	≤ 10	≤ 100	< 10
COc1cccc(F)c1-c1nc(CNc2cnccc2N2C[C@H](C)C[C@H](N)C2)ccc1F [Example 20, 4-((3S,5R)-3-Amino-5-methylpiperidin-1-yl)-N-((5-fluoro-6-(2-fluoro-6-methoxyphenyl)pyridin-2-yl)methyl)pyridin-3-amine]	10 to 50	1000 to 10000	< 10
C[C@@H]1C[C@H](N)CN(c2ccncc2NCc2ccc(F)c(-c3c(F)cncc3F)n2)C1 [Example 21, 4-((3S,5R)-3-Amino-5-methylpiperidin-1-yl)-N-((3,3′,5′-trifluoro-2,4′-bipyridin-6-yl)methyl)pyridin-3-amine]	≤ 10	100 to 1000	< 10
C[C@@H]1C[C@H](N)CN(c2ccncc2NCc2ccc(F)c(-c3c(F)cccc3C#N)n2)C1 [Example 22, 2-(6-((4-((3S,5R)-3-Amino-5-methylpiperidin-1-yl)pyridin-3-ylamino)methyl)-3-fluoropyridin-2-yl)-3-fluorobenzonitrile]	≤ 10	100 to 1000	< 10
C[C@@H]1C[C@H](N)CN(c2ccncc2NCc2ccc(F)c(-c3ccccc3F)n2)C1 [Example 23, 4-((3S,5R)-3-Amino-5-methylpiperidin-1-yl)-N-((5-fluoro-6-(2-fluorophenyl)pyridin-2-yl)methyl)pyridin-3-amine]	≤ 10	100 to 1000	< 10
C[C@H]1CN(c2ccncc2NCc2ccc(F)c(-c3c(F)cc(C(C)(C)C#N)cc3F)n2)C[C@@H](N)[C@@H]1O [Example 24, 2-(4-{6-[({4-[(3R,4R,5S)-3-Amino-4-hydroxy-5-methylpiperidin-1-yl]pyridin-3-yl}amino)methyl]-3-fluoropyridin-2-yl}-3,5-difluorophenyl)-2-methylpropanenitrile]	≤ 10	≤ 100	< 10
C[C@@H]1C[C@H](N)CN(c2ccncc2NCc2ccc(F)c(-c3c(F)cc(C(C)(C)C#N)cc3F)n2)C1 [Example 24A, 2-(4-{6-[({4-[(3S,5R)-3-Amino-5-methylpiperidin-1-yl]pyridin-3-yl}amino)methyl]-3-fluoropyridin-2-yl}-3,5-difluorophenyl)-2-methylpropanenitrile]	≤ 10	≤ 100	< 10
C[C@H]1CN(c2ccncc2NCc2ccc(F)c(-c3c(F)cccc3F)c2)C[C@@H](N)[C@@H]1O [Example 24B, (3R,4R,5S)-3-Amino-5-methyl-1-(3-{[(2′,6,6′-trifluorobiphenyl-3-yl)methyl]amino}pyridin-4-yl)piperidin-4-ol]	≤ 10	100 to 1000	< 10
C[C@@H]1C[C@H](N)CN(c2ccncc2NCc2ccc(F)c(-c3c(F)cccc3F)c2)C1 [Example 25, 4-[(3S,5R)-3-Amino-5-methylpiperidin-1-yl]-N-[(2′,6,6′-trifluorobiphenyl-3-yl)methyl]pyridin-3-amine]	≤ 10	100 to 1000	< 10
C[C@@H]1C[C@H](N)CN(c2ccncc2NCc2ccc(F)c(-c3c(F)cc(C4(O)CCC4)cc3F)c2)C1 [Example 26, 1-(5′-((4-((3S,5R)-3-Amino-5-methylpiperidin-1-yl)pyridin-3-ylamino)methyl)-2,2′,6-trifluorobiphenyl-4-yl)cyclobutanol]	≤ 10	100 to 1000	< 10
C[C@@H]1C[C@H](N)CN(c2ccncc2NCc2ccc(F)c(-c3c(F)cc(C4(O)CCOCC4)cc3F)c2)C1 [Example 27, 4-(5′-((4-((3S,5R)-3-Amino-5-methylpiperidin-1-yl)pyridin-3-ylamino)methyl)-2,2′,6-trifluorobiphenyl-4-yl)tetrahydro-2H-pyran-4-ol]	≤ 10	100 to 1000	< 10
C[C@H]1CN(c2ccncc2NCc2cccc(-c3c(F)cccc3F)n2)C[C@@H](N)[C@@H]1O [Example 28, (3R,4R,5S)-3-Amino-1-[3-({[6-(2,6-difluorophenyl)pyridin-2-yl]methyl}amino)pyridin-4-yl]-5-methylpiperidin-4-ol]	≤ 10	100 to 1000	< 10
C[C@@H]1C[C@H](N)CN(c2ccncc2NCc2cccc(-c3c(F)cccc3F)n2)C1 [Example 29, 4-[(3S,5R)-3-Amino-5-methylpiperidin-1-yl]-N-{[6-(2,6-difluorophenyl)pyridin-2-yl]methyl}pyridin-3-amine]	≤ 10	100 to 1000	< 10
C[C@H]1CN(c2ccncc2NCc2ccnc(-c3c(F)cccc3F)n2)C[C@@H](N)[C@@H]1O [Example 30, (3R,4R,5S)-3-Amino-1-[3-({[2-(2,6-difluorophenyl)pyrimidin-4-yl]methyl}amino)pyridin-4-yl]-5-methylpiperidin-4-ol]	10 to 50	1000 to 10000	10 to 50
C[C@@H]1C[C@H](N)CN(c2ccncc2NCc2ccnc(-c3c(F)cccc3F)n2)C1 [Example 31, 4-[(3S,5R)-3-Amino-5-methylpiperidin-1-yl]-N-{[2-(2,6-difluorophenyl)pyrimidin-4-yl]methyl}pyridin-3-amine]	10 to 50	1000 to 10000	< 10
C[C@H]1CN(c2ccncc2NCc2ccc(F)c(-c3c(F)cc(N4CCOCC4)cc3F)n2)C[C@@H](N)[C@@H]1O [Example 32, (3R,4R,5S)-3-Amino-1-(3-(((6-(2,6-difluoro-4-morpholinophenyl)-5-fluoropyridin-2-yl)methyl)amino)pyridin-4-yl)-5-methylpiperidin-4-ol]	≤ 10	≤ 100	< 10
C[C@@H]1C[C@H](N)CN(c2ccncc2NCc2ccc(F)c(-c3c(F)cc(N4CCOCC4)cc3F)n2)C1 [Example 33, 4-((3S,5R)-3-Amino-5-methylpiperidin-1-yl)-N-((6-(2,6-difluoro-4-morpholinophenyl)-5-fluoropyridin-2-yl)methyl)pyridin-3-amine]	≤ 10	≤ 100	< 10
C[C@H]1CN(c2ccncc2NCc2ccc(F)c(-c3c(F)cc(CO)cc3F)n2)C[C@@H](N)[C@@H]1O [Example 35, (3R,4R,5S)-3-Amino-1-{3-[({6-[2,6-difluoro-4-(hydroxymethyl)phenyl]-5-fluoropyridin-2-yl}methyl)amino]pyridin-4-yl}-5-methylpiperidin-4-ol]	≤ 10	≤ 100	< 10
C[C@@H]1C[C@H](N)CN(c2ccncc2NCc2ccc(F)c(-c3c(F)cc(CO)cc3F)n2)C1 [Example 36, (4-{6-[({4-[(3S,5R)-3-Amino-5-methylpiperidin-1-yl]pyridin-3-yl}amino)methyl]-3-fluoropyridin-2-yl}-3,5-difluorophenyl)methanol]	≤ 10	≤ 100	< 10
